Measured values reported in patent US20250282720A1, “ALKYLSULFENYL THIOCARBONATES: PRECURSORS TO HYDROPERSULFIDES POTENTLY ATTENUATE OXIDATIVE STRESS” (The Johns Hopkins University, priority 2021, published 2025).
“Also recorded” adds a separate entry of the source.

Assays:
aconitase [1] = test: Aconitase activity in enriched-mitochondrial pellets of FA fibroblasts; assay type: cell-based, human; set-up: aconitase activity after erastin: dose or concentration left out as unconfirmed
Description: Aconitase activity was measured as a result of formation of NADH and normalized to citrate synthase activity. FIG. 12B, pretreatment of AST with varying concentrations in FA fibroblasts for 4 h followed by 24 h treatment with erastin ([…]). Assays were conducted on enriched-mitochondrial pellets. Results are the means±SEM of n≥3 for all concentrations. *P<0.05, **P<0.005, ***P<0.0005, ****P<0.0001 for comparisons with the […]. Group comparisons are determined by a one-way analysis of variance (ANOVA) with Dunnet's correction post-hoc test using GraphPad Prism 8;
FXN deficiency results in diminished activity of various mitochondrial proteins that contain Fe—S cluster cofactors. For example, aconitase activity is affected in FA fibroblasts. Rötig et al., 1997. Aconitase catalyzes the stereospecific isomerization of citrate to isocitrate in the tricarboxylic acid cycle and its activity is highly dependent on an intact [4Fe-4S]^2+ cluster. We examined the impact of RSSH in FA fibroblasts on aconitase activity, the increase of which is reflective of preserved or augmented Fe—S cluster biosynthesis. […] To corroborate further that AST can effectively preserve or enhance Fe—S cluster assembly under challenging biological conditions, we conducted analogous experiments replacing H2O2 with erastin.

H9c2 cardiac myoblasts [2] = test: H9c2 cell protection from H2O2-mediated oxidative stress, CCK-8; assay type: cell-based, rat; settings: then H2O2 200 μM
Description: The cytoprotective effects of 1a was then measured against oxidative stress.
H9c2 embryonic rat heart myoblasts were obtained from the American Type Culture Collection. Cells were grown in Dulbecco's minimal essential medium (DMEM), supplemented with fetal bovine serum (FBS) 10%, penicillin 100 U/mL and streptomycin 100 μg/mL. They were propagated in T75-flasks, split before reaching 70-80% confluence (usually every day or every second day), and used within 11 passages. Cells were passaged to tissue culture treated 96-well microtiter plates at the specified density in 180 μL volumes and incubated for 24 h.
Cells were seeded at a density of 5×10^3 cells/well. After 24 h, precursor 1a or by-product 4a was added at 20 μL volumes using DMSO:H2O (<0.01% DMSO as the vehicle). Cells were incubated for 2 h before media was removed and the cells gently washed with PBS (pH 7.4). Then, 180 μL of fresh media and 20 μL H2O2 diluted into H2O were added and cells were incubated for an additional 2 h. At the completion of H2O2 exposure, each well is carefully washed 3 times with PBS (pH 7.4) before adding 100 μL of media, without-FBS, containing 10% v/v CCK-8 (Dojindo) and incubated for 3 h prior to obtaining absorbance values at 450 nm. The relative % viability was calculated as 100 times the ratio of the Abs450 (pre-treated, H2O2-exposed) over Abs450 (vehicle-treated, non H2O2-exposed).

H9c2 cardiac myoblasts [3] = test: H9c2 cell protection from H2O2-mediated oxidative stress, Sytox Green nucleic acid stain; assay type: cell-based, rat; settings: Sytox viability assay, H2O2 200 μM
Description: Jones and Singer, 2001. […] Tominaga et al., 1999.
Cells were incubated for 2 h before media was removed and the cells gently washed with PBS (pH 7.4). Then, 180 μL of fresh media and 20 μL H2O2 diluted in H2O were added before cells were incubated for an additional 1 h.

FA fibroblasts (GM04078) = test: Cytoprotection against H2O2 stress in FA fibroblasts, CCK8; assay type: cell-based, human; settings: 4 h pretreatment, H2O2 75 μM for 4 h
Description: FIG. 10A, pretreatment of AST with varying concentrations in FA fibroblasts (GM04078, Coriell Institute) for 4 h followed by 4 h treatment with H2O2. Viability was measured using CCK8 assay. FIG. 10B, pretreatment of AST with varying concentrations in FA fibroblasts for 4 h followed by treatment with erastin for 24 h. […] Group comparisons are determined by a one-way analysis of variance (ANOVA) with Dunnet's correction post-hoc test using GraphPad Prism 8;
Initially, we measured the cytotoxicity of AST in FA skin fibroblasts (GM04078), obtained from the Coriell Institute, to ensure that the RSSH donor itself is not cytotoxic. […] We then measured the ability of AST to confer cytoprotection in FA fibroblasts against hydrogen peroxide (H2O2) stress.

[4] = Decomposition of precursors in the presence of thiol (NAC / N-acetyl cysteine methyl ester), HPLC; assay type: physicochemical; settings: 5 equiv NAC, PBS pH 7.4, HPLC
Description: Initially, the decomposition of 1a was analyzed in the presence of 5 equiv of N-acetylcysteine (NAC) in PBS (pH 7.4) by HPLC. […] To investigate the mechanism, this reaction was monitored by UPLC-MS. […] Additionally, a small amount of unsymmetrical dialkyl polysulfide (pink highlight, R^1SSnSR^2, n=0-3) is observed, likely formed via NAC reaction with symmetrical dialkyl polysulfides (Scheme 1-5, eq. 7). As expected, a new peak at 5.65 min corresponding to N-acetyl cysteine-thiocarbonate 9a also is observed, confirming thiol attack at the perthiocarbonate carbonyl carbon of 1a to release RSSH. Due to the unstable nature of RSSH under these experimental conditions, the yield of the by-product 9a was measured as an indication of RSSH yield. The observation of RSSH-derived polysulfides formation as major products led us to anticipate the efficient formation of by-product 9a. […] The lower observed yield of 9a is likely due to its further reaction with RSSH under these conditions. […]
To a solution of N-acetyl cysteine methyl ester (500 μM) in pH 7.4 phosphate buffer saline (100 mM) containing DTPA (100 μM), precursor 1a or 8 (100 μM) was added. […] At different time points, an aliquot of the reaction mixture (500 μL) was withdrawn and transferred to pre-cooled 0.1% formic acid (500 μL) and analyzed using HPLC. […]

FA fibroblasts = test: Protection against erastin-induced ferroptosis in FA fibroblasts; assay type: cell-based, human; settings: 25 μM and 50 μM, 4 h pretreatment, erastin 24 h
Description: FIG. 10A, pretreatment of AST with varying concentrations in FA fibroblasts (GM04078, Coriell Institute) for 4 h followed by 4 h treatment with H2O2. Viability was measured using CCK8 assay. FIG. 10B, pretreatment of AST with varying concentrations in FA fibroblasts for 4 h followed by treatment with erastin for 24 h. Results are expressed as SEM with n≥3 for all concentrations. **P<0.005, for comparisons with the erastin group. Group comparisons are determined by a one-way analysis of variance (ANOVA) with Dunnet's correction post-hoc test using GraphPad Prism 8;
We next sought to determine whether AST would protect FA fibroblasts against erastin-induced cell death. Erastin is an inducer of ferroptosis, an iron-dependent form of cell death. It acts as an inhibitor of the cystine glutamate antiporter (system Xc), inhibiting the import of cystine, which leads to downstream depletion of glutathione (GSH) and ultimately to elevated ROS production.

aconitase [5] = test: Aconitase protein expression, immunoblot; assay type: cell-based, human
Description: Mitochondrial aconitase levels are unaffected by treatment of AST and H2O2. Immunoblot analysis was conducted utilizing enriched-mitochondrial pellets. Results are expressed as SEM with n≥3 for all concentrations;
Given these encouraging results, it was critical to determine whether the RSSH's positive impact on aconitase activity was due to enhanced Fe—S cluster biosynthesis or increased aconitase expression.

t1/2 of decomposition in the presence of thiol [4]: 38.4 ± 6.6 s | aconitase expression levels (aconitase [5]; in combination with erastin): no significant impact
Structure (SMILES): COC(=O)C(NC(C)=O)C(C)(C)SSC(=O)Oc1ccccc1 (stereo not shown) [Precursor 1a, Methyl 2-acetamido-3-methyl-3-((phenoxycarbonyl)disulfaneyl)butanoate]
aconitase activity after H2O2 (aconitase [1]; 4 h pretreatment at 10, 25, 50 μM, 75 mM H2O2): rescues aconitase activity to levels found in control | aconitase activity after erastin (aconitase [1]; pretreatment): attenuated this adverse effect | cytoprotection against H2O2-induced toxicity (H9c2 cardiac myoblasts [2]; pre-treatment 4 h): dose-dependent decrease of H2O2-induced toxicity | cytoprotection against H2O2-induced toxicity (H9c2 cardiac myoblasts [2]; pre-treatment with 5 μM for 8 h): shows protection | cytoprotection against H2O2-mediated toxicity (H9c2 cardiac myoblasts [3]): consistently shows protective effects | cytoprotection against H2O2 stress (FA fibroblasts (GM04078)): attenuated | protection against erastin-induced ferroptosis (FA fibroblasts): nearly complete protection | aconitase protein expression (aconitase [5]; 25 μM, 12 h pretreatment, 12 h H2O2, listed as AST): does not alter aconitase protein expression; also recorded: unaffected
